{
  "source": "patent US6355799B1",
  "about": "“Substituted benzene compounds, process for their preparation, and herbicidal and defoliant compositions containing them” (ISK Americas Incorporated, priority 1997, dated 2002)",
  "format_in_all_cases": "in vivo",
  "key": {"[1]": {"tested_on": "redroot pigweed (Amaranthus retroflexus, AMARE)", "assay": "Pre-emerge test, greenhouse herbicide activity screening", "conditions": "pre-emerge, rated 14 days after application, 0 = no damage, 100 = complete death", "procedure,_shortened": "(§1)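 Rating: 0–100 visual injury, 14 DAA. Application: acetone, 187 l/ha, 15–1000 g ai/ha, flat-fan track sprayer with nozzle 40–45 cm above soil or canopy. Post-emerge runs used 0.25% v/v surfactant on 2–3 leaf plants.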"}, "[2]": {"tested_on": "barnyardgrass (Echinochloa crus-galli, ECHCG)", "assay": "Pre-emerge test, greenhouse herbicide activity screening", "conditions": "pre-emerge, rated 14 days after application, 0 = no damage, 100 = complete death", "procedure,_shortened": "(§2)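 Compounds in acetone were track-sprayed at 15–1000 g ai/ha: pre-emergence onto soil sown the previous day, then top-watered to incorporate and later bottom-watered; post-emergence onto 2–3 leaf plants with 0.25% v/v surfactant, bottom-watered only. Ratings on a 0–100 phytotoxicity scale were taken at day 14.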"}, "[3]": {"tested_on": "green foxtail (Setaria viridis, SETVI)", "assay": "Pre-emerge test, greenhouse herbicide activity screening", "conditions": "pre-emerge, rated 14 days after application, 0 = no damage, 100 = complete death", "procedure,_shortened": "as §2"}, "[4]": {"tested_on": "ivyleaf morningglory (Ipomoea hederacea, IPOHE)", "assay": "Pre-emerge test, greenhouse herbicide activity screening", "conditions": "pre-emerge, rated 14 days after application, 0 = no damage, 100 = complete death", "procedure,_shortened": "as §2"}, "[5]": {"tested_on": "johnsongrass (Sorghum halepense, SORHA)", "assay": "Pre-emerge test, greenhouse herbicide activity screening", "conditions": "pre-emerge, rated 14 days after application, 0 = no damage, 100 = complete death", "procedure,_shortened": "as §2"}, "[6]": {"tested_on": "lambsquarters (Chenopodium album, CHEAL)", "assay": "Pre-emerge test, greenhouse herbicide activity screening", "conditions": "pre-emerge, rated 14 days after application, 0 = no damage, 100 = complete death", "procedure,_shortened": "as §2"}, "[7]": {"tested_on": "large crabgrass (Digitaria sanguinalis, DIGSA)", "assay": "Pre-emerge test, greenhouse herbicide activity screening", "conditions": "pre-emerge, rated 14 days after application, 0 = no damage, 100 = complete death", "procedure,_shortened": "as §2"}, "[8]": {"tested_on": "sicklepod (Cassia obtusifolia, CASOB)", "assay": "Pre-emerge test, greenhouse herbicide activity screening", "conditions": "pre-emerge, rated 14 days after application, 0 = no damage, 100 = complete death", "procedure,_shortened": "as §2"}, "[9]": {"tested_on": "velvetleaf (Abutilon theophrasti, ABUTH)", "assay": "Pre-emerge test, greenhouse herbicide activity screening", "conditions": "pre-emerge, rated 14 days after application, 0 = no damage, 100 = complete death", "procedure,_shortened": "as §2"}, "[10]": {"tested_on": "field corn (Zea mays L., var. Dekalb 535, CORN)", "assay": "Pre-emerge test, crop safety", "conditions": "pre-emerge, rated 14 days after application, 0 = no damage, 100 = complete death", "procedure,_shortened": "(§3)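 Fourteen days after spraying, crop and weed injury was graded visually from 0, no effect, to 100, every plant dead. Test substances were dissolved in acetone and applied at 15–1000 g ai/ha with a flat-fan nozzle. Application was either pre-emergence, one day after sowing, or post-emergence at the 2–3 leaf stage.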"}, "[11]": {"tested_on": "upland rice (Oryza sp., var. Tebonnet, RICE)", "assay": "Pre-emerge test, crop safety", "conditions": "pre-emerge, rated 14 days after application, 0 = no damage, 100 = complete death", "procedure,_shortened": "as §3"}, "[12]": {"tested_on": "barnyardgrass (Echinochloa crus-galli, ECHCG)", "assay": "Post-emerge test, greenhouse herbicide activity screening", "conditions": "phytotoxicity rating 0-100 (0 no damage, 100 complete death), 14 days after application", "procedure,_shortened": "as §3"}, "[13]": {"tested_on": "green foxtail (Setaria viridis, SETVI)", "assay": "Post-emerge test, greenhouse herbicide activity screening", "conditions": "phytotoxicity rating 0-100 (0 no damage, 100 complete death), 14 days after application", "procedure,_shortened": "as §3"}, "[14]": {"tested_on": "ivyleaf morningglory (Ipomoea hederacea, IPOHE)", "assay": "Post-emerge test, greenhouse herbicide activity screening", "conditions": "phytotoxicity rating 0-100 (0 no damage, 100 complete death), 14 days after application", "procedure,_shortened": "as §3"}, "[15]": {"tested_on": "johnsongrass (Sorghum halepense, SORHA)", "assay": "Post-emerge test, greenhouse herbicide activity screening", "conditions": "phytotoxicity rating 0-100 (0 no damage, 100 complete death), 14 days after application", "procedure,_shortened": "as §3"}, "[16]": {"tested_on": "lambsquarters (Chenopodium album, CHEAL)", "assay": "Post-emerge test, greenhouse herbicide activity screening", "conditions": "phytotoxicity rating 0-100 (0 no damage, 100 complete death), 14 days after application", "procedure,_shortened": "as §3"}, "[17]": {"tested_on": "large crabgrass (Digitaria sanguinalis, DIGSA)", "assay": "Post-emerge test, greenhouse herbicide activity screening", "conditions": "phytotoxicity rating 0-100 (0 no damage, 100 complete death), 14 days after application", "procedure,_shortened": "as §3"}, "[18]": {"tested_on": "redroot pigweed (Amaranthus retroflexus, AMARE)", "assay": "Post-emerge test, greenhouse herbicide activity screening", "conditions": "phytotoxicity rating 0-100 (0 no damage, 100 complete death), 14 days after application", "procedure,_shortened": "as §3"}, "[19]": {"tested_on": "sicklepod (Cassia obtusifolia, CASOB)", "assay": "Post-emerge test, greenhouse herbicide activity screening", "conditions": "phytotoxicity rating 0-100 (0 no damage, 100 complete death), 14 days after application", "procedure,_shortened": "as §3"}, "[20]": {"tested_on": "velvetleaf (Abutilon theophrasti, ABUTH)", "assay": "Post-emerge test, greenhouse herbicide activity screening", "conditions": "phytotoxicity rating 0-100 (0 no damage, 100 complete death), 14 days after application", "procedure,_shortened": "as §3"}, "[21]": {"tested_on": "field corn (Zea mays L., var. Dekalb 535, CORN)", "assay": "Post-emerge test, crop safety", "conditions": "phytotoxicity rating 0-100 (0 no damage, 100 complete death), 14 days after application", "procedure,_shortened": "as §1"}, "[22]": {"tested_on": "upland rice (Oryza sp., var. Tebonnet, RICE)", "assay": "Post-emerge test, crop safety", "conditions": "phytotoxicity rating 0-100 (0 no damage, 100 complete death), 14 days after application", "procedure,_shortened": "as §1"}},
  "data": [
    {"smiles": "COc1c(Cl)cc(F)c(-n2c(=O)cc(C(F)(F)F)n(C)c2=O)c1NC(=O)C=C(C)C", "note": "[2-7]", "values": [
      {"measurement": "Pre-emerge Herbicidal Activity AMARE (phytotoxicity rating, scale 0-100)", "setting": "[1]; 63 g ai/ha", "value": 90},
      {"measurement": "Pre-emerge Herbicidal Activity AMARE (phytotoxicity rating, scale 0-100)", "setting": "[1]; 250 g ai/ha", "value": 100},
      {"measurement": "Pre-emerge Herbicidal Activity ECHCG (phytotoxicity rating, scale 0-100)", "setting": "[2]; 63 g ai/ha", "value": 40},
      {"measurement": "Pre-emerge Herbicidal Activity ECHCG (phytotoxicity rating, scale 0-100)", "setting": "[2]; 250 g ai/ha", "value": 100},
      {"measurement": "Pre-emerge Herbicidal Activity SETVI (phytotoxicity rating, scale 0-100)", "setting": "[3]; 63 g ai/ha", "value": 95},
      {"measurement": "Pre-emerge Herbicidal Activity SETVI (phytotoxicity rating, scale 0-100)", "setting": "[3]; 250 g ai/ha", "value": 100},
      {"measurement": "Pre-emerge Herbicidal Activity IPOHE (phytotoxicity rating, scale 0-100)", "setting": "[4]; 63 g ai/ha", "value": 70},
      {"measurement": "Pre-emerge Herbicidal Activity IPOHE (phytotoxicity rating, scale 0-100)", "setting": "[4]; 250 g ai/ha", "value": 100},
      {"measurement": "Pre-emerge Herbicidal Activity SORHA (phytotoxicity rating, scale 0-100)", "setting": "[5]; 63 g ai/ha", "value": 90},
      {"measurement": "Pre-emerge Herbicidal Activity SORHA (phytotoxicity rating, scale 0-100)", "setting": "[5]; 250 g ai/ha", "value": 95},
      {"measurement": "Pre-emerge Herbicidal Activity CHEAL (phytotoxicity rating, scale 0-100)", "setting": "[6]; 63 g ai/ha", "value": 100},
      {"measurement": "Pre-emerge Herbicidal Activity CHEAL (phytotoxicity rating, scale 0-100)", "setting": "[6]; 250 g ai/ha", "value": 100},
      {"measurement": "Pre-emerge Herbicidal Activity DIGSA (phytotoxicity rating, scale 0-100)", "setting": "[7]; 63 g ai/ha", "value": 95},
      {"measurement": "Pre-emerge Herbicidal Activity DIGSA (phytotoxicity rating, scale 0-100)", "setting": "[7]; 250 g ai/ha", "value": 100},
      {"measurement": "Pre-emerge Herbicidal Activity CASOB (phytotoxicity rating, scale 0-100)", "setting": "[8]; 63 g ai/ha", "value": 60},
      {"measurement": "Pre-emerge Herbicidal Activity CASOB (phytotoxicity rating, scale 0-100)", "setting": "[8]; 250 g ai/ha", "value": 100},
      {"measurement": "Pre-emerge Herbicidal Activity ABUTH (phytotoxicity rating, scale 0-100)", "setting": "[9]; 63 g ai/ha", "value": 100},
      {"measurement": "Pre-emerge Herbicidal Activity ABUTH (phytotoxicity rating, scale 0-100)", "setting": "[9]; 250 g ai/ha", "value": 100},
      {"measurement": "Pre-emerge crop damage CORN (phytotoxicity rating, scale 0-100)", "setting": "[10]; 63 g ai/ha", "value": 10},
      {"measurement": "Pre-emerge crop damage CORN (phytotoxicity rating, scale 0-100)", "setting": "[10]; 250 g ai/ha", "value": 70},
      {"measurement": "Pre-emerge crop damage RICE (phytotoxicity rating, scale 0-100)", "setting": "[11]; 63 g ai/ha", "value": 60},
      {"measurement": "Pre-emerge crop damage RICE (phytotoxicity rating, scale 0-100)", "setting": "[11]; 250 g ai/ha", "value": 90},
      {"measurement": "Post-emerge Herbicidal Activity ECHCG", "setting": "[12]; 63 g ai/ha", "value": 0},
      {"measurement": "Post-emerge Herbicidal Activity ECHCG", "setting": "[12]; 250 g ai/ha", "value": 0},
      {"measurement": "Post-emerge Herbicidal Activity SETVI", "setting": "[13]; 63 g ai/ha", "value": 0},
      {"measurement": "Post-emerge Herbicidal Activity SETVI", "setting": "[13]; 250 g ai/ha", "value": 30},
      {"measurement": "Post-emerge Herbicidal Activity IPOHE", "setting": "[14]; 63 g ai/ha", "value": 50},
      {"measurement": "Post-emerge Herbicidal Activity IPOHE", "setting": "[14]; 250 g ai/ha", "value": 90},
      {"measurement": "Post-emerge Herbicidal Activity SORHA", "setting": "[15]; 63 g ai/ha", "value": 0},
      {"measurement": "Post-emerge Herbicidal Activity SORHA", "setting": "[15]; 250 g ai/ha", "value": 0},
      {"measurement": "Post-emerge Herbicidal Activity CHEAL", "setting": "[16]; 63 g ai/ha", "value": 40},
      {"measurement": "Post-emerge Herbicidal Activity CHEAL", "setting": "[16]; 250 g ai/ha", "value": 50},
      {"measurement": "Post-emerge Herbicidal Activity DIGSA", "setting": "[17]; 63 g ai/ha", "value": 0},
      {"measurement": "Post-emerge Herbicidal Activity DIGSA", "setting": "[17]; 250 g ai/ha", "value": 0},
      {"measurement": "Post-emerge Herbicidal Activity AMARE", "setting": "[18]; 63 g ai/ha", "value": 10},
      {"measurement": "Post-emerge Herbicidal Activity AMARE", "setting": "[18]; 250 g ai/ha", "value": 50},
      {"measurement": "Post-emerge Herbicidal Activity CASOB", "setting": "[19]; 63 g ai/ha", "value": 0},
      {"measurement": "Post-emerge Herbicidal Activity CASOB", "setting": "[19]; 250 g ai/ha", "value": 30},
      {"measurement": "Post-emerge Herbicidal Activity ABUTH", "setting": "[20]; 63 g ai/ha", "value": 70},
      {"measurement": "Post-emerge Herbicidal Activity ABUTH", "setting": "[20]; 250 g ai/ha", "value": 95},
      {"measurement": "Post-emerge Herbicidal Activity CORN (crop damage)", "setting": "[21]; 63 g ai/ha", "value": 0},
      {"measurement": "Post-emerge Herbicidal Activity CORN (crop damage)", "setting": "[21]; 250 g ai/ha", "value": 10},
      {"measurement": "Post-emerge Herbicidal Activity RICE (crop damage)", "setting": "[22]; 63 g ai/ha", "value": 40},
      {"measurement": "Post-emerge Herbicidal Activity RICE (crop damage)", "setting": "[22]; 250 g ai/ha", "value": 40}
    ]}
  ]
}
